Data reported in patent publication US20250179166A1, “TREATMENT OF BRAIN METASTASIS” (Ramot at Tel-Aviv University Ltd., priority 2022, published 2025).

Tests used:
MDA-MB-231 cells = assay: Breast cancer Transwell migration; conditions: vs control
WM115 melanoma cells = assay: Wound healing migration assay; format: cell-based, human; conditions: vs cells in astrocytes SFM
Description: (§1) Wound Healing Assay. To study the role of MCP-1 in mediating melanoma cells migration, (WM115 and 131/4-5B1 cells) (5×10^4 cells/well) were plated onto 96-well ImageLock tissue culture plate and allowed to grow until confluence. Next, a wound was created in each well using a 96-pin wound-making tool (WoundMaker, Essen BioScience, Sartorius, USA), and dislodged cells were washed with PBS. Melanoma cells were treated for 48 h with astrocytes CM, human astrocytes CM treated with siRNA:PEI polyplexes (500 nM siRNA targeting MCP-1 or scramble siRNA), astrocytes CM supplemented with 10 µg/mL anti-MCP-1 neutralizing antibody, astrocytes SFM supplemented with 1 μg/mL rh/mMCP-1. To monitor wound closure, the plate was placed in the IncuCyte™ ZOOM Live Cell Imaging system (Essen Bioscience, Sartorius, USA) and phase contrast images were taken every 2 h intervals over a course of 48 h using 10× objective. Results were calculated by the IncuCyte™ Software and presented as relative wound density (relative to the background density of the wound at time 0).

131/4-5B1 melanoma cells = assay: Wound healing migration assay; format: cell-based, human; conditions: vs cells in astrocytes SFM
Description: as §1

[1] = system: melanoma cells (D4M.3A, B16-F10, A375, 131/4-5B1 and WM115); assay: Transwell migration of melanoma cells towards bindarit-treated astrocytes; conditions: addition of rh-MCP-1; p=0.006 (astrocytes), p=0.115 (CM)
Description: Transwell® Migration Assay. […] In order to assess melanoma migration in co-culture with astrocytes, human astrocytes (1×10^5 cells/well) or murine astrocytes (2×10^5 cells/well) were seeded in the lower chambers of the Transwell® inserts. […] All migrated cells were then fixed and stained (Hema 3 Stain System; Fisher Diagnostics, fixed and stained (Hema 3 Stain System; Fisher Diagnostics, USA). The stained migrated cells were imaged using EVOS FL Auto microscope (Life Technologies, USA) using 10× objective, brightfield illumination.

MDA-MB-231 spheroids = assay: Breast cancer 3D tumor spheroids; conditions: BC cells alone or with astrocytes, microglia and PBMCs
Description: Multicellular tumor spheroids (MCTS). MCTS were prepared using the hanging-drop method as previously shown (24). […] The sprouting of MCTS was analyzed using ImageJ 1.52v software, and the results were presented as total area covered or % of total area covered per spheroid (pixel density) per well.
The plates were incubated for 7 days at 37° C. in 5% CO2 and cell fluorescence was followed and quantified by Cytation™ C10.

[2] = system: 4T1 breast cancer brain metastases; assay: Orthotopic breast cancer brain metastases (BCBM) model; format: in vivo, BALB/C mice; conditions: compared to the control group
Description: Breast Cancer Brain Metastases (BCBM). To generate primary breast rumors prior to BCBM, 4T1 cells (3×10^5 cells/100 μl) were inoculated orthotopically into the mammary fat pad of immunocompetent BALB/C mice. Seven days later, primary lesions were resected. One week post primary tumor resection, 4T1 cells (2×10^4 cells/2 μl) were intracranially inoculated stereotactically to the striatum of the same mice (previously bearing the primary tumors). […] Mice body weight change was monitored three times a week, and tumor growth was followed using 4.7T/1H magnetic resonance imaging (MRI, MR Solutions, UK). PBMCs activation.

rh-MCP-1: Recombinant human/murine MCP-1
MDA-MB-231 migration towards MCP-1 recombinant protein (MDA-MB-231 cells): migrated more
increase of melanoma cell migration (wound healing) (WM115 melanoma cells): 5%
increase of melanoma cell migration (wound healing) (131/4-5B1 melanoma cells): 27%
rescue of melanoma cell migration in presence of bindarit-treated astrocytes [1]: rescued the inhibition of melanoma cell migration

COc1ccc(C2CC(c3c(O)cc(C)oc3=O)=NCCS2)c(OC)c1 (stereo not drawn) [SELPi, 3-[7-(2,4-Dimethoxyphenyl)-2,3,6,7-tetrahydro-1,4-thiazepin-5-yl]-4-hydroxy-6-methyl-2H-pyran-2-one]
spheroid size (MDA-MB-231 spheroids): significant decrease
systemic disease relapse (primary tumor recurrence or extracranial metastases) [2]: did not show any improvement in relapse
